Data reported in patent US20260062407A1, “PEROXIREDOXIN 3 INHIBITORS AND METHODS OF USE FOR TREATING CANCER” (WAKE FOREST UNIVERSITY HEALTH SCIENCES, priority 2022, published 2026).

Columns and labels:
[1] = tested on: Enterococcus hirae (ATCC #10541); test: Antimicrobial Activity Assay (MIC); type: cell-based
Experimental: The overnight growth was then diluted into growth media to make a single solution of E. hirae with a final optical density at 600 nm=0.02 AU. A 20 mM stock solution of Thiostrepton in DMSO was made and used to make multiple dilutions of TS in DMSO. Each TS dilution (0.1 mL) was then added to a test tube containing 10 mL of the diluted E. hirae and grown at 37° C. overnight while shaking at 180 rpm. The next morning, each tube was visually inspected to determine if the cells grew. Final concentrations tested were 0.120, 0.090, 0.075, 0.060, 0.045, 0.030, and 0.015 μM TS. […] Three replicates were made on three separate days (n=9). […] For TS analogs, the dilute E. hirae was treated with 20 μM final concentration of each analog (three replicates each). […] DMSO was used as a positive control (complete cell growth) and 20 μM thiostrepton was used as a negative control.

578 cancer cells lines = settings: of 578 cancer cell lines tested; cited from earlier work
[2] = tested on: SK-OV-3 ovarian cancer cells; test: Cellular Activity Assay (cytotoxicity, crystal violet); type: cell-based; settings: Homo sapiens; SK-OV-3 cells, 48 hr treatment, 0.1-100 μM, crystal violet absorbance at 540 nm
Text: To test the activity of compounds, two complimentary assays were used as described below. The Biochemical PRX3 Inhibition Assay tests the ability of each compound to crosslink PRX3 in a simple, in vitro system. In the Cellular Activity Assay, we are testing the ability of compounds to kill SK-OV-3 ovarian cancer cells.
The Cellular Activity Assay measures the EC50 of each compound in human SK-OV-3 ovarian cancer cells TS to be taken into the cell, transported to the mitochondria, and crosslink PRX3.
The cytotoxicity of compounds was measured as described in Nelson et al. (2021) Antioxidants (Basel) 10, 150; Cunniff et al. (2015) PloS one 10, e0127310; and Newick et al. (2012)PloS one 7, e39404. SK-OV-3 is an adherent, epithelial, adenocarcinoma cell line obtained from ATCC (ref #: HTB-77). SK-OV-3 cells are resistant to the commonly used chemotherapeutics, cis-platinum and doxorubicin. For this PRX3 crosslinking assay, SK-OV-3 cells were plated in a 96-well plate. After 24 h recovery, the cells were treated for 48 hr with multiple concentrations of each compound ranging from 0.1-100 μM.
Cells were washed with PBS to remove dead cells and the remaining live cells were fixed with 3.0% formaldehyde and stained with 0.1% crystal violet. The amount of crystal violet was determined by reading the absorbance at 540 nm (crystal violet dye dissolved in 100% methanol) using a plate reader. […]

Solubility Assay (HPLC) = type: physicochemical; settings: 20 mM HEPES, 100 mM NaCl, pH 7.5, 18-24 hours at ambient temperature
Experimental: A 20 mM stock solution was made for each compound in DMSO. To measure solubility, 0.03-0.05 mL of the stock was added to 0.27 mL 20 mM HEPES, 100 mM NaCl, pH 7.5. The solution was mixed and rotated 18-24 hours at ambient temperature. The next day, solutions were centrifuged for 10 min at 20,000×g at 24° C. to remove insoluble, solid material. Next, 100 μL of the supernatant containing the soluble compound was added to 900 μL DMSO and High Performance Liquid Chromatography was performed as described in Table 1 and either HPLC gradient 1 (Table 2) or HPLC gradient 2 (Table 3). For each analog, a 200 μM standard and a 20 μM standard were prepared and run in parallel (standards were dissolved completely in 100% DMSO). The amount of compound in the experimental sample was calculated by comparing the area under the curve for compound peak to the area for the closest standard and correcting for dilution.

What does the source list for `C=C(NC(=O)C(=C)NC(=O)c1csc(C2=N[C@@H]3c4csc(n4)[C@H]4NC(=O)c5csc(n5)[C@H]([C@](C)(O)[C@@H](C)O)NC(=O)[C@H]5CSC(=N5)/C(=C/C)NC(=O)[C@H]([C@@H](C)O)NC(=O)c5csc(n5)[C@]3(CC2)NC(=O)[C@H](C)NC(=O)C(=C)NC(=O)[C@H](C)NC(=O)[C@H]([C@@H](C)CC)N[C@@H]2C=Cc3c([C@H](C)O)cc(nc3[C@H]2O)C(=O)O[C@@H]4C)n1)C(N)=O` [TS, Thiostrepton]?
TS concentrations at which complete growth was observed ([1]; E. hirae, overnight at 37° C., n=9): ≤ 0.030 µM; MIC ([1]; Enterococcus hirae, ATCC10541, read-out: TS concentrations at which no growth was observed (MIC)): ≥ 0.045 µM

With `C=C(NC(=O)C(=C)NC(=O)c1csc(C2=N[C@@H]3c4csc(n4)[C@H]4NC(=O)c5csc(n5)[C@H]([C@](C)(O)[C@@H](C)O)NC(=O)[C@H]5CSC(=N5)/C(=C/C)NC(=O)[C@H]([C@@H](C)O)NC(=O)c5csc(n5)[C@]3(CC2)NC(=O)[C@H](C)NC(=O)C(=C)NC(=O)[C@H](C)NC(=O)[C@H]([C@@H](C)CC)N[C@@H]2C=Cc3c([C@H](C)O)cc(nc3[C@H]2O)C(=O)O[C@@H]4C)n1)C(N)=O` [Thiostrepton (TS), Thiostrepton] as the compound, how does the “number of tumor cell lines with meaningful efficacy” value (578 cancer cells lines) read?
The value was 403.

What does the source list for `C=C(NC(=O)c1csc(N2CCC(NC(=O)CC3CCOCC3)CC2)n1)C(=O)NC(=C)C(=O)OC` [Compound 51, Methyl 2-(2-(2-(4-(2-(tetrahydro-2H-pyran-4-yl)acetamido)piperidin-1-yl)thiazole-4-carboxamido)acrylamido)acrylate]?
EC50 [2]: 10 to 25 µM; Solubility (Solubility Assay (HPLC)): + (<0.1 mM)
